{"source": "paper PMC11582173", "about": "“Synthesis, cytotoxicity, anti-inflammatory, anti-metastatic and anti-oxidant activities of novel chalcones incorporating 2-phenoxy-N-arylacetamide and thiophene moieties: induction of apoptosis in MCF7 and HEP2 cells” (Naunyn-Schmiedeberg's Archives of Pharmacology, 2024)", "key": {"AKT1 gene": {"system": "AKT1 gene", "experiment": "Real-time PCR, AKT1 gene expression", "assay_type": "cell-based, human", "conditions": "relative to untreated control (1)", "protocol": "The expression level of the following six genes (Ki-67, Survivin, Interleukin-1 beta (IL-1B), Interleukin-6 (IL-6), Cyclooxygenase-2 (COX-2) and protein kinase B (AKT1)) was determined in MCF7 and HEP2 treated with the IC50 of compound 5c. The untreated cells were used as a negative control for comparison purposes. […] Ki-67 is a popular proliferation marker for human tumor cells. […] Survivin is an inhibitor of apoptotic protein (IAP) family member, which is essential for cell division. The lowering of the expression of survivin inhibited tumor development, triggered apoptosis, and made tumor cells more susceptible to radiation and chemotherapy (Albadari and Li [2023]). […] IL-1B is a pleiotropic mediator of inflammation, which is produced in response to a variety of stressors (Aarreberg et al. [2019]). […] IL-6 is a pro-inflammatory cytokine that plays a significant role in the proliferation and differentiation of human cells. It promotes the production of numerous proteins involved in acute inflammation (Uciechowski and Dempke [2020]). […]\nThe expression level of the following six genes (Ki-67, survivin, AKT1, IL-6, COX2, and IL-1B) was examined using real-time polymerase chain reaction (qPCR) (Mohamed et al. [2023a]). […] The cycle threshold (Ct) was determined automatically. […]"}, "MCF7 cells": {"system": "MCF7 cells", "experiment": "Flow cytometric analysis of cell cycle, MCF7", "assay_type": "cell-based, human", "conditions": "MCF7, IC50 of 5c, 48 h", "protocol": "In DMEM-supplemented media, cells were plated in 12-well plates at a cell density of 6–8×10^5 per well. After twenty-four hours, cells were cultured for an additional 48 hours with the IC50 of the target compound. The untreated cells were used as a negative control. After 48 h of incubation, the treated cells were centrifuged at 1,200 rpm and 4 °C for 10 min. After discarding the supernatant, the wells were then given a single phosphate-buffered saline (PBS) wash and then centrifuged for 10 min at 1,200 rpm. Trypsin/EDTA was used to collect the cells, and after one PBS wash, they were resuspended in 0.5 mL of 0.05% Triton X-100 for 10 min at room temperature. Each cell suspension was stained by being given 1 mL of 50 µg/mL propidium iodide (PI) to be left at room temperature in the darkness for 20 minutes. The analysis of the cell cycle was done by a flow cytometer (Becton Dickenson (BD) FACSCalibur, USA) (Michalkova et al. [2022])."}}, "note": "“And” between values parts separate entries of the source, which are not always exact repeats. Equal entries are not always repeated.", "data": [{"smiles": "COc1ccc(NC(=O)COc2ccc(C=CC(=O)c3cccs3)cc2)cc1", "note": "[Compound 5c, N-(4-Methoxyphenyl)-2-(4-(3-oxo-3-(thiophen-2-yl)prop-1-en-1-yl)phenoxy)acetamide]", "values": [{"measurement": "AKT1 expression folding", "setting": "AKT1 gene; HEP2 cells treated with IC50 of 5c", "value": "0.381±0.011", "unit": "fold"}, {"measurement": "AKT1 expression folding", "setting": "AKT1 gene; MCF7 cells treated with IC50 of 5c", "value": "0.402±0.068", "unit": "fold"}, {"measurement": "Percentage of DNA in G2-M phase", "setting": "MCF7 cells; untreated control 8.95±0.38", "value": "2.8% and 2.855±0.07778%"}, {"measurement": "Percentage of DNA in S phase", "setting": "MCF7 cells; untreated control 45.405±1.97283", "value": "42.84% and 42.845±0.4596%"}, {"measurement": "Percentage of DNA in G0-G1 phase", "setting": "MCF7 cells; untreated control 45.585±1.548", "value": "54.3% and 54.3±0.5374%"}]}]}
